{"source": "paper PMC6841712", "about": "(Scientific Reports, 2019)", "target": "T1, 145138 (Aurantiochytrium limacinum, UniProt A0A3S5XF47)", "T1 construct": "6x His-tagged full-length ORF overexpressed in A. limacinum; secreted form purified from medium on Ni-Sepharose; cleaved between L159 and A160; N-terminus ALSSS; 30 kDa on SDS-PAGE", "T1 sequence (A0A3S5XF47 160-420)": "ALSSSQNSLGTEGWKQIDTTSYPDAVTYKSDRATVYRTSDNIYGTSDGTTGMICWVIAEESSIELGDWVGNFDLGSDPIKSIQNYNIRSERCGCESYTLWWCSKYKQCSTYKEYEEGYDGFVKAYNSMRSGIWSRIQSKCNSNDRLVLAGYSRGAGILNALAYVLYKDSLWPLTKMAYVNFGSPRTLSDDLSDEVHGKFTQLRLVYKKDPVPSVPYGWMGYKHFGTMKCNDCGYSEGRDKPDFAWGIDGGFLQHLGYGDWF", "assay": "inhibition of TF-TG hydrolysis ([…],3-TF-DG release), TLC fluorescence scan", "type": "biochemical", "conditions": "competitive; substrate TF-TG"}
{"smiles": "CCCCCCCCCCCCCCCCCC(=O)O[C@H](CO)COP(=O)([O-])OCC[N+](C)(C)C", "note": "[2-acyl LPC]", "values": [{"measurement": "inhibition of TF-TG hydrolysis (1,3-TF-DG release), TLC fluorescence scan", "value": "2-acyl LPC competitively inhibited the release of fatty acyl chain at sn-2 of TG"}]}
